Experimental data: article PMC12311725, “Identification of Ginsentide-like Peptides from Cacao Beans with Oxidative Stress Protection” (ACS Omega, 2025)
Where a SMILES comes first, the peptide text is derived from it. Bridges are numbered along the chain shown (N, C = ends).

Key:
[1] = Ferric Reducing Antioxidant Power (FRAP) assay
Description: OxiSelect Ferric Reducing Antioxidant Power (FRAP) Assay Kit (Cell Biolabs, USA) was used to measure the antioxidant potential of cocotide tC1. The assay was performed according to the manufacturer’s instructions .

HaCaT cell lysate = molecular target: T1, HaCaT cell lysate (Homo sapiens, UniProt P22830); type: binding; conditions: affinity enrichment mass spectrometry
T1 construct: incubated with HaCaT keratinocyte lysates; endogenous in cells; host or cells: HaCaT human keratinocytes
T1 sequence (P22830 55-423): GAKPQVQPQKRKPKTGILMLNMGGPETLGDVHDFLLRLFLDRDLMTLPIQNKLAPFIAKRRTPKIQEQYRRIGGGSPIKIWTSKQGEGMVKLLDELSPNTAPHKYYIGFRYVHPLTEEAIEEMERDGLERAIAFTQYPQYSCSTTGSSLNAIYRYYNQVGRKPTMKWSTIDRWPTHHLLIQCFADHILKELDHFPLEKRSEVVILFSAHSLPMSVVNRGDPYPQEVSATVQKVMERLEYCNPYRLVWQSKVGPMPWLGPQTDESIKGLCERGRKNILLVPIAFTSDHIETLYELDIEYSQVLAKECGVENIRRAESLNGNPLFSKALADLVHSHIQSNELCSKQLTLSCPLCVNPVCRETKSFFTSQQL

HaCaT cells = test: Tandem-mass-tag (TMT) quantitative proteomic profiling; type: cell-based, human; conditions: serum starved overnight, 10 μM tC1 for 24 h, versus untreated
Description: Tandem-mass tag quantitative proteomic profiling was performed according to the manufacturer’s instructions . Briefly, HaCaT cells treated with or without cocotide tC1 were harvested and lysed by sonication for 3 min at 25% amplitude with a 2-s-on, 3-s-off pulse time in 8 M urea and 10 mM ammonium bicarbonate supplemented with a protease inhibitor. After centrifugation, quantification of the total proteins was performed by the BCA method. A total of 100 μg of protein from each condition was subjected to in-solution digestion before labeling the resultant peptides using the TMT-10plex Isobaric Label Reagent Set (Thermo Scientific, Rockford, IL, USA) according to the manufacturer’s protocol. […] Eluate was collected in 1 min fractions and strategically pooled via concatenation based on absorbance measurements at a wavelength of 280 nm. […]
The fractionated peptides were separated and analyzed using a Dionex Ultimate 3000 RSLCnano system coupled to a Q Exactive instrument (Thermo Fisher Scientific, MA, USA). […] Peptides were then analyzed on a Q Exactive apparatus with an EASY nanospray source (Thermo Fisher Scientific) at an electrospray potential of 1.8 kV. […] Raw data files were processed, searched, and TMT 10-plex was selected as the quantification method using Peaks Studio 11 with the UniProt human proteome (Proteome ID: UP000005640) as the reference proteome. […]

[2] = Post-translational modification analysis of methionine oxidation (tims-TOF MS/MS); type: physicochemical; conditions: native peptide, during extraction and purification
Description: The primary sequences of cocotides from Theobroma cacao aqueous extracts were determined by LC-MS/MS sequencing as described previously. The C18-SPE fractionated Theobroma cacao aqueous extracts were redissolved in 20 mM DTT at 37 °C for 1 h followed by S-alkylation with 200 mM iodoacetamide at 37 °C for 1 h. The mixture was desalted with a C18 Zip-tip and subjected to analysis on a trapped ion mobility spectrometer-time-of-flight tandem mass spectrometer (tims-TOF MS/MS). Data analysis was performed using PEAKS Studio (version 11, Bioinformatics Solutions, Waterloo, ON, Canada) with a precursor ion tolerance of 10 ppm and a fragment ion tolerance of 0.05 Da. Carbamidomethylation at Cys was set as a fixed modification. Deamidation of […], oxidation of Met, and acetylation at Lys and N-term were set as variable modification. Peptide sequencing was performed using PEAKS DB protein identification, which integrates database search of an in-house ginsentide-like peptide library derived from Theobroma cacao transcriptome with de novo sequencing.

CC[C@H](C)[C@@H]1NC(=O)CNC(=O)[C@H](CCSC)NC(=O)[C@@H]2CCCN2C(=O)[C@H](Cc2ccc(O)cc2)NC(=O)[C@H](CC(C)C)NC(=O)[C@@H]2CSSC[C@@H]3NC(=O)[C@H](Cc4ccccc4)NC(=O)CNC(=O)CNC(=O)[C@H](C)NC(=O)[C@H](CO)NC(=O)[C@H](CC(C)C)NC(=O)[C@@H](N)CSSC[C@@H]4NC(=O)[C@H](CSSC[C@H](NC1=O)C(=O)N[C@@H](Cc1ccc(O)cc1)C(=O)NCC(=O)N[C@@H](CO)C(=O)NCC(=O)N[C@H](C(=O)O)CSSC[C@H](NC(=O)[C@H](CC(N)=O)NC(=O)CNC4=O)C(=O)NCC(=O)N2)NC(=O)[C@H](CC(=O)O)NC(=O)[C@H](CCSC)NC(=O)[C@@H]1CCCN1C(=O)[C@H](CC(N)=O)NC(=O)[C@H](Cc1ccccc1)NC(=O)[C@H](CCSC)NC3=O [cocotide tC1] (H-CLSAGGFCMFNPMDCCGNCGCLYPMGICYGSGC-OH; disulfide 1-16, 8-21, 15-28, 19-33; N-terminus and C-terminus assumed)
antioxidant power relative to ascorbic acid ([1]; FRAP value of tC1 versus ascorbic acid (positive control)): 152 fold
FRAP value ([1]; OxiSelect FRAP Assay Kit): 55.1 Fe^2+ μM/μM
ferrochelatase as interacting protein (HaCaT cell lysate): significant interacting partner
number of downregulated proteins (minimum 2-fold, significance value >15) (HaCaT cells): 3 proteins
number of upregulated proteins (minimum 2-fold, significance value >15) (HaCaT cells): 19 proteins
Met19 and Met25 oxidized to Met(O) [2]: < 5%
methionine at position 9 converted to Met(O) [2]: 27%
